Measurements reported in patent publication US5594019A, “6-heterocyclic-4-amino-1,3,4,5-tetrahydrobenz[CD]indoles” (Eli Lilly and Company, priority 1994, dated 1997).
Read-outs that look alike come from different tables or passages of the source.

Assays:
[1] = target: T1, 5-HT1D receptor (Bos taurus, UniProt F1MGM3); test: In vitro binding activity at the 5-HT1D receptor, inhibition of [3H]5-HT binding to caudate nuclei membranes; settings: [3H]5-HT (1.7-1.9 nM), bovine caudate membranes, 8-OH-DPAT and mesulergine 100 nM masking, 10 minutes at 37° C., pH 7.4
T1 construct: Bovine brains were obtained and the caudate nuclei were dissected out; from tissue; host or cells: bovine caudate nuclei (membranes)
Description: The affinities of certin of the compounds of Formula 1 at the central 5-HT1D binding sites were determined using a modification of the binding assay described by Heuring and Peroutka, J. Neurosci., 7, 894 (1987). Bovine brains were obtained and the caudate nuclei were dissected out and frozen at -70° C. until the time that the membranes were prepared for the binding assays. At that time the tissues were homogenized in 40 volumes of ice-cold Tris-HCl buffer (50 mM, pH 7.4 at 22° C.) with a Techmar Tissumizer (setting 65 for 15 seconds), and the homogenate was centrifuged at 39,800xg for 10 minutes. The resulting pellet was then resuspended in the same buffer, and the centrifugation and resuspension process was repeated three additional times to wash the membranes. Between the second and third washes the resuspended membranes were incubated for 10 minutes at 37° C. to facilitate the removal of endogenous 5-HT. The final pellet was resuspended in Tris buffer to a concentration of 25 mg of original tissue wet weight/ml for use in the binding assay. […] The assay tubes were incubated for 10 minutes at 37° C., and the contents were then rapidly filtered through GF/B filters (pretreated with 0.5% polyethylenimine), followed by four 1 ml washes with ice-cold buffer. The radioactivity trapped by the filters was quantitated by liquid scintillation spectrometry, and specific [^3 H]5-HT binding to the 5-HT1D sites was defined as the difference between [^3 H]5-HT bound in the presence and absence of […] 5-HT.
In Table 2, the first column provides the example number of the compound evaluated while the second column provides the amount of test compound (expressed in nanomolar concentration) required to inhibit the binding of [^3 H]5-HT by 50% (indicated as IC50).

[2] = target: T2, 5-HT1A receptor (Rattus norvegicus, UniProt P19327); test: In vitro binding at the 5-HT1A receptor, inhibition of [3H]8-OH-DPAT binding to hippocampal membranes; design: species or system male Sprague-Dawley rats; settings: [3H]8-OH-DPAT (1.0 nM), 10 minutes at 37° C., pH 7.4
T2 construct: the brains were rapidly chilled and dissected to obtain the hippocampi; from tissue; host or cells: hippocampus of male Sprague-Dawley rats (membranes)
T2 sequence (P19327 1-422): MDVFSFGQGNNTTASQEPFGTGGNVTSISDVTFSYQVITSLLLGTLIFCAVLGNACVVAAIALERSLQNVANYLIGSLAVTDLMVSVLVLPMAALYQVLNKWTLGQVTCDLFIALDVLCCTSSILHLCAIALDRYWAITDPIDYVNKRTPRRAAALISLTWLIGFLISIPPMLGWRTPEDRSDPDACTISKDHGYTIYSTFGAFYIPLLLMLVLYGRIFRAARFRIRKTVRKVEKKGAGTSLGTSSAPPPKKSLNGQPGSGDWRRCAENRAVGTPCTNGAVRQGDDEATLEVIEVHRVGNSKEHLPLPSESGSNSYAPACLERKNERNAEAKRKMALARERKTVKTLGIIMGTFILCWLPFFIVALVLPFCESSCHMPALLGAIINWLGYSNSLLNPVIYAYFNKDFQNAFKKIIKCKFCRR
Description: The affinities of certain of the compounds of Formula 1 at the central 5-HT1A receptors were determined using a modification of the binding assay described by Taylor, et al., J. Pharmacol. Exp. Ther., 236, 118-125 (1986). Membranes for the binding assay were prepared from male Sprague-Dawley rats (150-250 g). The animals were killed by decapitation, and the brains were rapidly chilled and dissected to obtain the hippocampi. Membranes from the hippocampi were either prepared that day, or the hippocampi were stored frozen (-70° C.) until the day of preparation. The membranes were prepared by homogenizing the tissue in 40 volumes of ice-cold Tris-HCl buffer (50 mM, pH 7.4 at 22° C.) using a Techmar Tissumizer (setting 65 for 15 seconds), and the homogenate was centrifuged at 39800xg for 10 minutes. The resulting pellet was then resuspended in the same buffer, and the centrifugation and resuspension process was repeated three additional times to wash the membranes. Between the second and third washes the resuspended membranes were incubated for 10 minutes at 37° C. to facilitate the removal of endogenous ligands. The final pellet was resuspended in 67 mM Tris-HCl, pH 7.4, to a concentration of 2 mg of tissue original wet weight/200 μl. This homogenate was stored frozen (-70° C.) until the day of the binding assay. […] The assay tubes were incubated for 10 minutes at 37° C., and the contents were then rapidly filtered through GF/B filters (pretreated with 0.5% polyethylenimine), tollowed by four 1 ml washes with ice-cold buffer. The radioactivity trapped by the filters was quantitated by liquid scintillation spectometry, and specific [^3 H]8-OH-DPAT binding to the 5-HT1A sites was defined as the difference between [^3 H]8-OH-DPAT bound in the presence and absence of 10 μM 5-HT.
In Table 1, the first column provides the example number of the compound evaluated while the second column provides the amount of test compound (expressed in nanomolar concentration) required to inhibit the binding of [^3 H]8-OH-DPAT by 50% (indicated as IC50).

[3] = test system: serotonin metabolite 5-hydroxyindole acetic acid (5HIAA); test: Effect on serotonin turnover in vivo, decrease of 5HIAA concentration in whole brain; design: species or system Male albino rats; settings: Rattus norvegicus, 1 h, rats, whole brain 5HIAA, one hour after dosing (generally a 15-20% decrease)
Description: In another experiment certain compounds of Formula 1 were evaluated to determine ability to affect serotonin turnover in vivo. As a measure of such affect on serotonin turnover, the decrease of the serotonin metabolite 5-hydroxyindole acetic acid (5HIAA) was measured. The following protocol was employed.
Male albino rats were injected either subcutaneously or orally with an aqueous solution of the compound tested. The pH of the solution was adjusted as necessary to solubilize the compound. A control of the solution without the test compound was similarly administered to a control animal. The rats were decapitated one hour later. The whole brain was then removed and frozen on dry ice for storage prior to analysis. 5-Hydroxyindole acetic acid (5HIAA) concentration in whole brain was measured by liquid chromatography with electrochemical detection as reported by Fuller and Perry, "Effects of Buspirone and its Metabolite, 1-(2-pyrimidinyi)piperazine, on Brain Monoamines and Their Metabolites in Rats", J. Pharmacol. Ext. Ther., 248, p. 50-56 (1989), incorporated herein by reference.
In Table III, Column 1 provides the Example No. of the compound tested while Column 2 provides the minimum effective dose (in mg/kg) required to produce a statistically significant decrease in 5HIAA concentration relative to control (generally a 15-20% decrease) for both oral and subcutaneous methods of administration.

[4] = po, p.o., read-out: Minimum Effective Dose (mg/kg) p.o., for a statistically significant decrease in 5HIAA concentration relative to control
[5] = sc, s.c., read-out: Minimum Effective Dose (mg/kg) s.c., for a statistically significant decrease in 5HIAA concentration relative to control

T1 sequence (F1MGM3 1-403): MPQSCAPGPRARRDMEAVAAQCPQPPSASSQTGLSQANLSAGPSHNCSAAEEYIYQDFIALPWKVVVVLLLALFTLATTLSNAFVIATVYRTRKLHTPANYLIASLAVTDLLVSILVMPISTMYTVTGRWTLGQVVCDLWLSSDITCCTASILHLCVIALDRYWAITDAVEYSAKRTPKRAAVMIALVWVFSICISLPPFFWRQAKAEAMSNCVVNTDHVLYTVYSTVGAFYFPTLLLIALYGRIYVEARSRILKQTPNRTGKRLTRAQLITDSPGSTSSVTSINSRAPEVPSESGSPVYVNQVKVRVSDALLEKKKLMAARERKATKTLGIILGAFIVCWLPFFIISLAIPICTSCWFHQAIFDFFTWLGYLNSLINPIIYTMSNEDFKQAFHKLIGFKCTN

| Structure (SMILES) | IC50 [1] [nM] | IC50 [2] [nM] | minimal effective dose [3, 4] [mg/kg] | minimal effective dose [3, 5] [mg/kg] |
| --- | --- | --- | --- | --- |
| CCCN(CCC)[C@@H]1Cc2c[nH]c3ccc(-c4ccon4)c(c23)C1 [Example 24, (+)(4S)-6-(3-isoxazoly)-4-(di-n-propylamino)-1,3,4,5-tetrahydrobenz[cd]indole] | 18.6 | 0.61 |  |  |
| CCCN(CCC)[C@H]1Cc2c[nH]c3ccc(-c4ccno4)c(c23)C1 [Example 26, (-)(4R)-6-(5-isoxazolyl)-4-(di-n-propylamino)-1,3,4,5-tetrahydrobenz[cd]indole] | 46.4 | 0.1 |  |  |
| CCCN(CCC)[C@H]1Cc2c[nH]c3ccc(-c4nc(-c5ccccc5)no4)c(c23)C1 [Example 30, (-)(4R)-6-(3-phenyl-1,2,4-oxadiazol-5-yl)-4-(di-n-propylamino)-1,3,4,5-tetrahydrobenz-[cd]indole] |  | 7.1 |  |  |
| CCCN(CCC)[C@H]1Cc2c[nH]c3ccc(-c4ncco4)c(c23)C1 [Example 31, (-)(4R)-6-(2-oxazolyl)-4-(di-n-propylamino)-1,3,4,5-tetrahydrobenz[cd]indole] | 280 | 2.77 | 1 | 1 |
| CCCN(CCC)[C@H]1Cc2c[nH]c3ccc(-c4cnco4)c(c23)C1 [Example 32, (-)(4R)-6-(5-oxazolyl)-4-(di-n-propylamino)-1,3,4,5-tetrahydrobenz[cd]indole] | 74.4 | 0.53 |  |  |
| CCCN(CCC)[C@H]1Cc2c[nH]c3ccc(-c4cccnc4)c(c23)C1 [Example 33, (-)(4R)-6-(3-pyridyl)-4-(di-n-propylamino)-1,3,4,5-tetrahydrobenz[cd]indol] | 29.4 | 0.87 | > 10 | 0.3 |
| CCCN(CCC)[C@H]1Cc2c[nH]c3ccc(-c4nnco4)c(c23)C1 [Example 34, (4R)-6-[2-(1,3,4-oxadiazolyl)]-4-(di-n-propylamino)-1,3,4,5-tetrahydrobenz[cd]indole] | 577 | 0.75 | 10 | 0.1 |
| CCCN(CCC)[C@H]1Cc2c[nH]c3ccc(-c4nnc(-c5ccccc5)o4)c(c23)C1 [Example 35, (-)(4R)-6-(5-phenyl-1,3,4-oxadiazol-2-yl)-4-(di-n-propylamino)-1,3,4,5-tetrahydrobenz[cd]indole] |  | 19 |  | > 1 |
